We go through four compounds from ChEMBL document CHEMBL1201862, “PubChem BioAssay data set” (2004).

Each structure is given as a SMILES string.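 48-hour exposure; five concentrations; linearly interpolated endpoints. GI50 marks 50% less growth.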 The source made the active and inactive calls. Rule as the data show it: active = GI50 up to about 1.1 µM and inactive = higher. Some results are limits rather than exact numbers.

Test in all cases: growth of human tumour cells (NCI), 48 h
Experiment [1] relates to Hs-578T.
Experiment [2] deals with MCF7.
Experiment [3] relates to HOP-92.
Experiment [4] has as its system DLD-1.
For experiment [5], the system named is SK-MEL-2.
Experiment [6] relates to EKVX.
For experiment [7], the system named is SN12C.
In experiment [8] the test system is MDA-MB-435.
For experiment [9], the system named is OVCAR-4.
The test system of experiment [10] is HL-60.
In experiment [11] the test system is UACC-62.
Experiment [12] has as its system NCI/ADR-RES.
The test system of experiment [13] is Malme-3M.
For experiment [14], the system named is A498.
The test system of experiment [15] is DU-145.
Experiment [16] deals with A549.
The test system of experiment [17] is OVCAR-5.
Experiment [18] has as its system RPMI-8226.
Experiment [19] deals with 786-0.
Experiment [20] deals with SW-620.

Regarding `CCN(CC)CCn1ccc(=O)c2cc3c(=O)ccn(CCN(CC)CC)c3c(C)c21`, the GI50 was 4.03 µM (inactive) in experiment [1]; 20.8 µM (inactive) in experiment [2]; 7.69 µM (inactive) in experiment [3]; 1.65 µM (inactive) in experiment [4]; 11.6 µM (inactive) in [5]; 5.77 µM (inactive) in experiment [6]. The GI50 was 5.65 µM (inactive) in experiment [7]; 4.65 µM (inactive) in [8]; 2.02 µM (inactive) in experiment [9]; 1.42 µM (inactive) in experiment [10]; 15.4 µM (inactive) in experiment [11]; 1.41 µM (inactive) in [12]. The GI50 is 15 µM (inactive) in [13]; 15.5 µM (inactive) in [14]; 5.19 µM (inactive) in experiment [15]; 4.27 µM (inactive) in experiment [16]; 14.1 µM (inactive) in experiment [17]; 2.1 µM (inactive) in experiment [18]. Also, the GI50 in experiment [19] was 1.92 µM (inactive); in [20], 1.53 µM (inactive).
As for `Nc1ncnc2c1sc(=S)n2-c1ccccc1`, the GI50 in [3] was 40.8 µM (inactive); in [4], > 100 µM (inactive); in [5] it was > 100 µM (inactive); in experiment [6], > 100 µM (inactive); in experiment [7] it was > 100 µM (inactive); in experiment [9], > 100 µM (inactive). Moreover, the GI50 in experiment [10] was > 100 µM (inactive); in experiment [11], > 100 µM (inactive); in experiment [13], > 100 µM (inactive); in [14] it was 82.8 µM (inactive); in experiment [16], > 100 µM (inactive); in experiment [17] it was > 100 µM (inactive). Besides, the GI50 in experiment [18], in [19] and in experiment [20] was > 100 µM (inactive) throughout.
As to `Oc1ccc2c3c1OC1C(=NN=C4CCC5(O)C6Cc7ccc(O)c8c7C5(CCN6CC5CC5)C4O8)CCC4(O)C(C2)N(CC2CC2)CCC314` (stereo not given), the GI50 in experiment [3] is 21.1 µM (inactive); in experiment [4], 46 µM (inactive); in [5], 13.9 µM (inactive); in experiment [6], 32.4 µM (inactive); in experiment [7], > 41.3 µM (inactive); in experiment [9], 25.6 µM (inactive). Besides, the GI50 is 16.4 µM (inactive) in experiment [10]; 20.5 µM (inactive) in experiment [11]; 19.8 µM (inactive) in experiment [13]; > 42.8 µM (inactive) in experiment [14]; 20.5 µM (inactive) in [16]; > 100 µM (inactive) in [17]. The GI50 was 28.8 µM (inactive) in experiment [18], 24.9 µM (inactive) in experiment [19] and 20.8 µM (inactive) in experiment [20].
As to `O=C1/C(=C/c2ccccc2)CN(C(=O)CCN2CCOCC2)C/C1=C\c1ccccc1`, the GI50 in experiment [1] is 2.6 µM (inactive); in experiment [2], 1.95 µM (inactive); in [3], 9.79 µM (inactive); in [4], 1.88 µM (inactive); in [5], 2.55 µM (inactive); in [6], 13.6 µM (inactive). Also, the GI50 was 2.18 µM (inactive) in experiment [7]; 1.9 µM (inactive) in [8]; 2.94 µM (inactive) in [9]; 1.32 µM (inactive) in experiment [10]; 1.88 µM (inactive) in experiment [11]; 3.16 µM (inactive) in experiment [12]. Also, the GI50 in experiment [13] was 2.49 µM (inactive); in [14], 12.9 µM (inactive); in [15] it was 16 µM (inactive); in [16] it was 7.16 µM (inactive); in [17] it was 7.36 µM (inactive); in experiment [18], 0.519 µM (active). In addition, the GI50 in experiment [19] is 1.96 µM (inactive); in [20] it was 0.459 µM (active).
